One assay concerns the target T1, human arginase I (ARG I) (Homo sapiens, UniProt P05089).
T1 sequence (P05089 1-322): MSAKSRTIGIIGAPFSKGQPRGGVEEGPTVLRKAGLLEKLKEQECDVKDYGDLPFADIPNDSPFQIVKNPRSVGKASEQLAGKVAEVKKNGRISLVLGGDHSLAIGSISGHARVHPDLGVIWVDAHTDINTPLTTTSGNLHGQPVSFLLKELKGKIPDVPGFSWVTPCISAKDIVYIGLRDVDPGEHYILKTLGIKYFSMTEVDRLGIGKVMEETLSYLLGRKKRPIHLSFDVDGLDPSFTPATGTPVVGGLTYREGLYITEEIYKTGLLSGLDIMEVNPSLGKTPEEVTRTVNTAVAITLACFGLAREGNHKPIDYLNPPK
Briefly: Inhibition of arginase I, spectrophotometric urea assay at 530 nm. Type of assay: biochemical. As to conditions: read-out: Potency (ARG I). Put shortly: (§1)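 IC50 was derived by regression of OD530 normalized to uninhibited-enzyme controls against log concentration. Urea from 60-min, 37 °C turnover of L-arginine with manganese sulfate was detected after acid o-phthaldialdehyde/primaquine quench and 10 min colour development. Arginase I and II came from 100 ng/ml stocks in pH 7.4 phosphate with ovalbumin.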

A further assay addresses T2, arginase II (ARG II) (Homo sapiens, UniProt P78540).
T2 sequence (P78540 23-354): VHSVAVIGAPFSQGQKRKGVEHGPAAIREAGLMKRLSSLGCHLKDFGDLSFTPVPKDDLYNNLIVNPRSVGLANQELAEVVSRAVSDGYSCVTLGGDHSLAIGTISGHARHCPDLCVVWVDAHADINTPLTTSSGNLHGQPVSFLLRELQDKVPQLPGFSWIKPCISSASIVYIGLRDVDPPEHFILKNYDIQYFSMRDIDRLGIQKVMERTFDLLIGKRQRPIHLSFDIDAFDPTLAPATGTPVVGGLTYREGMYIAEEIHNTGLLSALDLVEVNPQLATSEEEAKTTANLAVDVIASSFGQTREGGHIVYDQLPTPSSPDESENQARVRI
Briefly: Inhibition of arginase II, spectrophotometric urea assay at 530 nm. Type of assay: biochemical. In a few lines:
as §1

[1] abbreviates: Formula II compounds, Table 2-A.
The mark [2] stands for this setting: Formula II compounds, Table 2-A, read-out: Potency (ARG).
[3] abbreviates: Formula I compounds, Table 2, read-out: Potency (ARG II).

pIC50: −log10 of the molar value. Structures can show the parent of a compound that is named as a salt. Where two headings read alike, the source gives them in different places. Bounds are passed on as bounds.

With `NC(CCCCB(O)O)(C(=O)O)C1CCN(C(=O)Cc2ccc(F)cc2)CC1` (centres unmarked) [28-A, 2-amino-6-borono-2-{1-[(4-fluorophenyl)acetyl]-piperidin-4-yl}hexanoic acid hydrochloride], the pIC50 at human arginase I (ARG I) (setting [1]) and at arginase II (ARG II) (setting [2]) was 5.30 to 5.70 in each case.
Regarding `NC(CCCCB(O)O)(C(=O)O)C1CCN(CCCc2ccccc2)CC1` (centres unmarked) [Example 102-A, 2-amino-6-borono-2-(1-(3-phenylpropyl)piperidin-4-yl)hexanoic acid dihydrochloride], the pIC50 on human arginase I (ARG I) (setting [1]) and on arginase II (ARG II) (setting [2]) was 6.60 to 10.00 in each case.
For the molecule `NC(CCCCB(O)O)(CCN1CCCCC1C(=O)O)C(=O)O` (centres unmarked) [compound 52, 1-(3-amino-7-borono-3-carboxyheptyl)piperidine-2-carboxylic acid dihydrochloride], the pIC50 at human arginase I (ARG I) (Formula I compounds, Table 2) is 5.30 to 5.70; at arginase II (ARG II) (setting [3]), 5.30 to 5.70.
Take `CC(C)Oc1ccc(CN(C)CCC(N)(CCCCB(O)O)C(=O)O)cc1` (centres unmarked) [compound 74, 2-amino-6-borono-2-(2-((4-isopropoxybenzyl)(methyl)amino)ethyl)hexanoic acid dihydrochloride]: the pIC50 at human arginase I (ARG I) (Formula I compounds, Table 2) was 5.30 to 5.70; at arginase II (ARG II) (setting [3]) it was below 5.30.
Turning to `NC(CCCCB(O)O)(C(=O)O)C1CCN(Cc2ccc3c(c2)OCO3)CC1` (centres unmarked) [Example 90-A, 2-amino-2-(1-(benzo[d][1,3]dioxol-5-ylmethyl)piperidin-4-yl)-6-boronohexanoic acid dihydrochloride], the pIC50 at human arginase I (ARG I) (setting [1]) and on arginase II (ARG II) (setting [2]) was 6.60 to 10.00 each time.
As for `COC[C@H]1CCCN1CC[C@](N)(CCCCB(O)O)C(=O)O` [compound 3, (R)-2-amino-6-borono-2-(2-((R)-2-(methoxymethyl)pyrrolidin-1-yl)ethyl)hexanoic acid dihydrochloride], the pIC50 at human arginase I (ARG I) (Formula I compounds, Table 2) was 5.70 to 6.00; on arginase II (ARG II) (setting [3]), 5.70 to 6.00.
Turning to `NC(CCCCB(O)O)(CCN1CCC(C(F)(F)F)CC1)C(=O)O` (centres unmarked) [compound 39, 2-amino-6-borono-2-(2-(4-(trifluoromethyl)piperidin-1-yl)ethyl)hexanoic acid dihydrochloride], the pIC50 at human arginase I (ARG I) (Formula I compounds, Table 2) is 5.70 to 6.00; at arginase II (ARG II) (setting [3]) it was 5.30 to 5.70.
In the case of `NC(CCCCB(O)O)(C(=O)O)[C@H]1C[C@@H](NCc2cccc3cccnc23)C1` (stereo partly drawn) [Example 79-A, cis-2-amino-6-borono-2-(3-(quinolin-8-ylmethylamino)cyclobutyl)hexanoic acid dihydrochloride], the pIC50 on human arginase I (ARG I) (setting [1]) and at arginase II (ARG II) (setting [2]) was 6.60 to 10.00 throughout.
As for `NC(CCCCB(O)O)(CCN1CC=C(c2ccccc2)CC1)C(=O)O` (centres unmarked) [compound 28, 2-amino-6-borono-2-(2-(4-phenyl-5,6-dihydropyridin-1(2H)-yl)ethyl)hexanoic acid dihydrochloride], the pIC50 at human arginase I (ARG I) (Formula I compounds, Table 2) is 6.00 to 6.60; on arginase II (ARG II) (setting [3]), 5.70 to 6.00.
Consider `CCN(CC)C(=O)C1CCCN(CCC(N)(CCCCB(O)O)C(=O)O)C1` (centres unmarked) [compound 23, 2-Amino-6-borono-2-[2-(3-diethylcarbamoyl-piperidin-1-yl)-ethyl]-hexanoic acid dihydrochloride], for which the pIC50 is 6.00 to 6.60 at human arginase I (ARG I) (Formula I compounds, Table 2) and 6.00 to 6.60 at arginase II (ARG II) (setting [3]).
With `NC(CCCCB(O)O)(C(=O)O)[C@H]1CCCN(Cc2ccc(Cl)c(Cl)c2)C1` (stereo partly drawn) [Example 69-A, 2-amino-6-borono-2-((S)-1-(3,4-dichlorobenzyl)piperidin-3-yl)hexanoic acid dihydrochloride], the pIC50 was 6.00 to 6.60 on human arginase I (ARG I) (setting [1]) and 5.70 to 6.00 at arginase II (ARG II) (setting [2]).
On to `NC(CCCCB(O)O)(C(=O)O)C1CCN(C2CCCC2)CC1` (centres unmarked) [24-A, 2-amino-6-borono-2-(1-cyclopentylpiperidin-4-yl)hexanoic acid dihydrochloride], for which the pIC50 on human arginase I (ARG I) (setting [1]) and on arginase II (ARG II) (setting [2]) was 6.00 to 6.60 throughout.
Consider `NC(CCCCB(O)O)(C(=O)O)C1CCN(Cc2ccccc2N2CCOCC2)CC1` (centres unmarked) [Example 54-A, 2-amino-6-borono-2-(1-(2-morpholinobenzyl)piperidin-4-yl)hexanoic acid dihydrochloride], for which the results for the pIC50 on human arginase I (ARG I) (setting [1]) and on arginase II (ARG II) (setting [2]) were 6.60 to 10.00 and 6.00 to 6.60, respectively.
With `C=CCC(N)(CCCCB(O)O)C(=O)O` (centres unmarked) [compound 14, 2-allyl-2-amino-6-boronohexanoic acid], the pIC50 is 7.37 at human arginase I (ARG I) (Formula I compounds, Table 2) and below 5.30 at arginase II (ARG II) (setting [3]).
Regarding `NC(CCCCB(O)O)(C(=O)O)C1CCN(Cc2ccccc2-c2ccccc2)CC1` (centres unmarked) [Example 55-A, 2-amino-2-(1-(biphenyl-2-ylmethyl)piperidin-4-yl)-6-boronohexanoic acid dihydrochloride], the pIC50 on human arginase I (ARG I) (setting [1]) and on arginase II (ARG II) (setting [2]) was 6.60 to 10.00 in each case.
For the molecule `NC(CCCCB(O)O)(C(=O)O)C1CCN(C(=S)Nc2cccc3ccccc23)CC1` (centres unmarked) [Example 45-A, 2-amino-6-borono-2-(1-(naphthalen-1-ylcarbamothioyl)piperidin-4-yl)hexanoic acid], the values for the pIC50 on human arginase I (ARG I) (setting [1]) and at arginase II (ARG II) (setting [2]) were 6.00 to 6.60 and 5.70 to 6.00, respectively.
On the same counts, the results for `NC(CCCCB(O)O)(C(=O)O)C1CCN(CCCc2cc(F)cc(Cl)c2)CC1` (centres unmarked) [Example 50-A, 2-amino-6-borono-2-(1-(3-(3-chloro-5-fluorophenyl)propyl)piperidin-4-yl)hexanoic acid] are 6.60 to 10.00 and 6.00 to 6.60.
As to `CN(C)CCN(C)CCC(N)(CCCCB(O)O)C(=O)O` (centres unmarked) [compound 71, 2-amino-6-borono-2-(2-((2-(dimethylamino)ethyl)(methyl)amino)ethyl)hexanoic acid trihydrochloride], the pIC50 was 5.30 to 5.70 at human arginase I (ARG I) (Formula I compounds, Table 2) and 5.30 to 5.70 on arginase II (ARG II) (setting [3]).
In the case of `CN(CCC(N)(CCCCB(O)O)C(=O)O)CC(O)c1ccccc1` (centres unmarked) [compound 78, 2-amino-6-borono-2-(2-((2-hydroxy-2-phenylethyl)(methyl)amino)ethyl)hexanoic acid dihydrochloride], the pIC50 on human arginase I (ARG I) (Formula I compounds, Table 2) was 5.30 to 5.70; on arginase II (ARG II) (setting [3]), 5.30 to 5.70.
As for `CC(C)CCN1CCC(C(N)(CCCCB(O)O)C(=O)O)CC1` (centres unmarked) [Example 92-A, 2-amino-6-borono-2-(1-isopentylpiperidin-4-yl)hexanoic acid dihydrochloride], the pIC50 on human arginase I (ARG I) (setting [1]) and at arginase II (ARG II) (setting [2]) was 6.60 to 10.00 throughout.
In the case of `NC(CCCCB(O)O)(CC[C@@H]1CCCN1)C(=O)O` (stereo partly drawn) [compound 143, 2-amino-6-borono-2-(2-((S)-pyrrolidin-2-yl)ethyl)hexanoic acid dihydrochloride], the pIC50 was 6.60 to 10.00 at human arginase I (ARG I) (Formula I compounds, Table 2) and 6.60 to 10.00 on arginase II (ARG II) (setting [3]).
On to `NC(CCCCB(O)O)(CCN1CCCC1c1cc2ccccc2o1)C(=O)O` (centres unmarked) [compound 42, 2-amino-2-(2-(2-(benzofuran-2-yl)pyrrolidin-1-yl)ethyl)-6-boronohexanoic acid dihydrochloride], for which the pIC50 on human arginase I (ARG I) (Formula I compounds, Table 2) was 5.30 to 5.70; on arginase II (ARG II) (setting [3]) it was 5.30 to 5.70.
Take `N[C@H]1CC[C@H]([C@](N)(CCCCB(O)O)C(=O)O)C1` [16-A, (R)-2-amino-2-((1S,3S)-3-aminocyclopentyl)-6-boronohexanoic acid dihydrochloride]: the pIC50 on human arginase I (ARG I) (setting [1]) and on arginase II (ARG II) (setting [2]) was 6.60 to 10.00 each time.
`NC(CCCCB(O)O)(CCN1CCC(Cc2ccc(Cl)cc2)CC1)C(=O)O` (centres unmarked) [compound 122, 2-amino-6-borono-2-(2-(4-(4-chlorobenzyl)piperidin-1-yl)ethyl)hexanoic acid dihydrochloride]: the pIC50 on human arginase I (ARG I) (Formula I compounds, Table 2) is 6.00 to 6.60; on arginase II (ARG II) (setting [3]) it was 6.00 to 6.60.
As to `CN(CCc1ccccc1)CC[C@](N)(CCCCB(O)O)C(=O)O` [compound 11, (R)-2-amino-6-borono-2-(2-(methyl(phenethyl)amino)ethyl) hexanoic acid dihydrochloride], the pIC50 on human arginase I (ARG I) (Formula I compounds, Table 2) was 6.60 to 10.00; on arginase II (ARG II) (setting [3]), 6.60 to 10.00.

These data come from US9994594B2, “Inhibitors of arginase and their therapeutic applications” (MARS, INCORPORATED, priority 2010, dated 2018).
